Patent US8093231B2, “Sulfonylethyl phosphorodiamidates” (Telik, Inc., priority 2004, dated 2012)
Read-outs that look alike come from different tables or passages of the source.

Tests used:
[1] = tested on: LNCap (prostate carcinoma); assay: Cytotoxicity/growth inhibition assay, LNCap; type: cell-based, human; details: read-out: IC50 (LNCap)
Procedure, shortened: (§1)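 Test compounds in DMSO (0.1–200 μM; final DMSO 0.5%) added to freshly diluted cells (3×10^3 cells/mL MX-1 and DLD-1, 6×10^3 cells/mL LNCap), triplicate wells. Cultured ~three doubling times (3 days MX-1, 4 days DLD-1/LNCap). CellTiter-Glo luminescence, 15 min room temperature; growth expressed as % of DMSO solvent control.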

[2] = tested on: MX-1 (human breast cancer) tumor; assay: MX-1 xenograft assay, intraperitoneal administration; type: in vivo, athymic nu/nu mice; details: 100 mg/Kg intraperitoneal once/day for 5, 9, or 14 days
Description: Female athymic nu/nu mice (Harlan, Indianapolis, Ind., U.S.A. or similar vendor), 6-8 weeks old (approximately 20 g), were implanted in the mammary fat pad of the right fore flank with 20-30 mg pieces of MX-1 (human breast cancer) tumor harvested from similar mice that had previously been implanted with the MX-1 tumor. Approximately 7-10 days after tumor transplantation, when the tumor weight was approximately 50-200 mg, the mice were assigned to treatment groups. […] All compounds were active in this assay, with tumor growth inhibition compared to vehicle between 5% (compound 171A) and 99% (compound 13A), with most compounds causing at least 30% tumor growth inhibition. […] Compound 13A was tested at 25, 50, or 100 mg/Kg for 5 or 9 days, causing tumor inhibition between 19% (25 mg/Kg for 5 days) and 99% (100 mg/Kg for 9 days). Compound 70A was tested at 50, 100, and 150 mg/Kg for 5 or 12 days, causing tumor inhibition between 16% (50 mg/Kg for 5 days) and 95% (150 mg/Kg for 12 days).

[3] = tested on: MX-1 (breast carcinoma); assay: Cytotoxicity/growth inhibition assay, MX-1; type: cell-based, human; details: read-out: IC50 (MX-1)
Procedure, shortened: as §1

[4] = tested on: DLD-1 (colorectal adenocarcinoma); assay: Cytotoxicity/growth inhibition assay, DLD-1; type: cell-based, human; details: read-out: IC50 (DLD-1)
Procedure, shortened: as §1

[5] = LNCap cells, 4 days culture, CellTiter-Glo, 0.1-200 μM tested
[6] = MX-1 cells, 3 days culture, CellTiter-Glo, 0.1-200 μM tested
[7] = DLD-1 cells, 4 days culture, CellTiter-Glo, 0.1-200 μM tested

Compound	IC50 [1, 5] [µM]	activity in MX-1 xenograft assay [2]	tumor growth inhibition compared to vehicle [2] [%]	IC50 [3, 6] [µM]	IC50 [4, 7] [µM]	IC50 ([1]; Homo sapiens, LNCaP, 96 h) [µM]	IC50 ([3]; Homo sapiens, MX1, 72 h) [µM]	IC50 ([4]; Homo sapiens, DLD-1, 96 h) [µM]
O=C(c1ccco1)C1CCN(C(=O)c2ccc(CS(=O)(=O)CCOP(=O)(N(CCCl)CCCl)N(CCCl)CCCl)cc2)CC1 [Compound 171A]	27.7	active	5	6.1	6.1	–	–	–
O=P(OCCS(=O)(=O)Cc1cccs1)(N(CCCl)CCCl)N(CCCl)CCCl [Compound 180A]	16.8	active	–	9.3	4.9	–	–	–
CCOC(=O)CNC(=O)c1ccc(CS(=O)(=O)CCOP(=O)(N(CCCl)CCCl)N(CCCl)CCCl)cc1 [Compound 172A, α-[[2-[[bis[bis(2-chloroethyl)amino]phosphinyl]oxy]ethyl]sulfonyl]-4-[(ethoxycarbonylmethyl)-aminocarbonyl]toluene]	–	active	–	–	–	31.6	4.8	6.1
O=C(CS(=O)(=O)CCOP(=O)(N(CCCl)CCCl)N(CCCl)CCCl)N[C@@H](Cc1ccccc1)C(=O)O [Compound 15A, N-{2-[[2-[[bis[bis(2-chloroethyl)amino]phosphinyl]oxy]ethyl]sulfonyl]acetyl}-L-phenylalanine]	–	active	–	–	–	≥ 200	23.6	13.7
CC(C)(C)OC(=O)N[C@@H](CS(=O)(=O)CCOP(=O)(N(CCCl)CCCl)N(CCCl)CCCl)C(=O)N1CCN(C(=O)c2ccco2)CC1 [Compound 85A]	41.1	–	–	11.8	8.8	–	–	–
CN(CC(=O)OC(C)(C)C)C(=O)CS(=O)(=O)CCOP(=O)(N(CCCl)CCCl)N(CCCl)CCCl [Compound 28A]	35.2	–	–	9	5.1	–	–	–
O=P(OCCS(=O)(=O)Cc1ccc(Cl)cc1)(N(CCCl)CCCl)N(CCCl)CCCl [Compound 131A]	6.9	–	–	5.2	3.6	–	–	–
O=C(CS(=O)(=O)CCOP(=O)(N(CCCl)CCCl)N(CCCl)CCCl)NCCN1CCOCC1 [Compound 23A]	47.5	active	–	25.9	6.6	–	–	–
CN(C)CC(=O)Nc1cc(CS(=O)(=O)CCOP(=O)(N(CCCl)CCCl)N(CCCl)CCCl)cc(CS(=O)(=O)CCOP(=O)(N(CCCl)CCCl)N(CCCl)CCCl)c1 [Compound 20B]	33.3	–	–	5.1	4	–	–	–
N[C@@H](CS(=O)(=O)CCOP(=O)(N(CCCl)CCCl)N(CCCl)CCCl)C(=O)OCc1ccccc1 [Compound 82A]	59.8	–	–	27.9	7.7	–	–	–
O=C(CS(=O)(=O)CCOP(=O)(N(CCCl)CCCl)N(CCCl)CCCl)Nc1ccc([N+](=O)[O-])c(C(F)(F)F)c1 [Compound 21A]	6.3	–	–	4.2	2.8	–	–	–
CC(C)(C)c1ccc(CS(=O)(=O)CCOP(=O)(N(CCCl)CCCl)N(CCCl)CCCl)cc1 [Compound 137A]	22.3	–	–	1.7	0.8	–	–	–
NC(=O)[C@@H](N)CS(=O)(=O)CCOP(=O)(N(CCCl)CCCl)N(CCCl)CCCl [Compound 78A]	≥ 200	–	–	18.8	6.3	–	–	–
COC(=O)c1ccc(NC(=O)CS(=O)(=O)CCOP(=O)(N(CCCl)CCCl)N(CCCl)CCCl)cc1 [Compound 30A]	13.2	–	–	9.1	6.5	–	–	–
O=C(c1ccc(CS(=O)(=O)CCOP(=O)(N(CCCl)CCCl)N(CCCl)CCCl)cc1)N(CCO)CCO [Compound 169A]	144	–	–	34.5	7.6	–	–	–
O=P(OCCS(=O)(=O)Cc1ccc(Cl)cc1Cl)(N(CCCl)CCCl)N(CCCl)CCCl [Compound 135A]	19.1	–	–	3.5	0.6	–	–	–
O=P(OCCS(=O)(=O)c1ncc2nc[nH]c2n1)(N(CCCl)CCCl)N(CCCl)CCCl [Compound 127A]	≥ 200	–	–	15.2	5.8	–	–	–
O=C(O)c1cccc(S(=O)(=O)CCOP(=O)(N(CCCl)CCCl)N(CCCl)CCCl)c1 [Compound 119A]	189	–	–	32.5	9.8	–	–	–
O=C(NCc1ccccc1)c1ccc(CS(=O)(=O)CCOP(=O)(N(CCCl)CCCl)N(CCCl)CCCl)cc1 [Compound 161A]	11.7	–	–	7.4	3.7	–	–	–
N#Cc1ccc(CS(=O)(=O)CCOP(=O)(N(CCCl)CCCl)N(CCCl)CCCl)cc1 [Compound 153A]	6.9	–	–	3	1.8	–	–	–

Compound	IC50 [1, 5] [µM]	activity in MX-1 xenograft assay [2]	tumor growth inhibition compared to vehicle [2] [%]	IC50 [3, 6] [µM]	IC50 [4, 7] [µM]	IC50 ([1]; Homo sapiens, LNCaP, 96 h) [µM]	IC50 ([3]; Homo sapiens, MX1, 72 h) [µM]	IC50 ([4]; Homo sapiens, DLD-1, 96 h) [µM]
CC(C)S(=O)(=O)CCOP(=O)(N(CCCl)CCCl)N(CCCl)CCCl [Compound 4A]	67.8	–	–	24	12.7	–	–	–
NCC(=O)Nc1cc(CS(=O)(=O)CCOP(=O)(N(CCCl)CCCl)N(CCCl)CCCl)cc(CS(=O)(=O)CCOP(=O)(N(CCCl)CCCl)N(CCCl)CCCl)c1 [Compound 19B]	52	–	–	7.6	3.8	–	–	–
CC(C)NC(=O)[C@H](CS(=O)(=O)CCOP(=O)(N(CCCl)CCCl)N(CCCl)CCCl)NC(=O)OC(C)(C)C [Compound 84A]	29.6	–	–	10.6	6	–	–	–
O=P(OCCS(=O)(=O)Cc1ccco1)(N(CCCl)CCCl)N(CCCl)CCCl [Compound 179A]	25.6	–	–	7.2	7.6	–	–	–
O=P(OCCS(=O)(=O)c1ccc(F)cc1)(N(CCCl)CCCl)N(CCCl)CCCl [Compound 111A]	20.1	–	–	1.3	0.6	–	–	–
O=C(Nc1cc(CS(=O)(=O)CCOP(=O)(N(CCCl)CCCl)N(CCCl)CCCl)cc(CS(=O)(=O)CCOP(=O)(N(CCCl)CCCl)N(CCCl)CCCl)c1)C1CCCNC1 (stereo not drawn) [Compound 21B]	132	–	–	14.9	4.1	–	–	–
O=C(c1ccc(CS(=O)(=O)CCOP(=O)(N(CCCl)CCCl)N(CCCl)CCCl)cc1)N1CCN(c2ccccn2)CC1 [Compound 176A]	29	–	–	6.4	4.9	–	–	–
O=P(OCCS(=O)(=O)c1ccccn1)(N(CCCl)CCCl)N(CCCl)CCCl [Compound 124A]	15.5	–	–	7.2	6	–	–	–
Cc1cnc(S(=O)(=O)CCOP(=O)(N(CCCl)CCCl)N(CCCl)CCCl)nc1 [Compound 123A]	25.1	–	–	9	5.9	–	–	–
CCN(CC)C(=O)c1ccc(CS(=O)(=O)CCOP(=O)(N(CCCl)CCCl)N(CCCl)CCCl)cc1 [Compound 157A]	29.6	–	–	3.1	2.3	–	–	–
Cn1ccnc1S(=O)(=O)CCOP(=O)(N(CCCl)CCCl)N(CCCl)CCCl [Compound 122A]	23	–	–	4.3	3.1	–	–	–
Nc1cc(CS(=O)(=O)CCOP(=O)(N(CCCl)CCCl)N(CCCl)CCCl)cc(CS(=O)(=O)CCOP(=O)(N(CCCl)CCCl)N(CCCl)CCCl)c1 [Compound 17B]	18.6	–	–	6.2	4.6	–	–	–
CCCS(=O)(=O)CCOP(=O)(N(CCCl)CCCl)N(CCCl)CCCl [Compound 3A]	67.6	–	–	11.4	9.2	–	–	–
CC(C)(C)OC(=O)CCNC(=O)CS(=O)(=O)CCOP(=O)(N(CCCl)CCCl)N(CCCl)CCCl [Compound 37A]	28.9	–	–	8	8	–	–	–
N[C@@H](CS(=O)(=O)CCOP(=O)(N(CCCl)CCCl)N(CCCl)CCCl)C(=O)NCCC(=O)O [Compound 94A]	≥ 200	–	–	22.8	37.5	–	–	–
O=C(O)CCC(=O)Nc1cc(CS(=O)(=O)CCOP(=O)(N(CCCl)CCCl)N(CCCl)CCCl)cc(CS(=O)(=O)CCOP(=O)(N(CCCl)CCCl)N(CCCl)CCCl)c1 [Compound 18B]	49.8	–	–	8.4	2.7	–	–	–
N#Cc1ccc(S(=O)(=O)N[C@@H](CS(=O)(=O)CCOP(=O)(N(CCCl)CCCl)N(CCCl)CCCl)C(=O)NCc2ccccc2)cc1 [Compound 99A]	33.5	–	–	16.2	6.4	–	–	–
O=P(OCCS(=O)(=O)c1ccccc1)(N(CCCl)CCCl)N(CCCl)CCCl [Compound 117A]	16.3	–	–	4.1	4	–	–	–
O=C(c1ccc(CS(=O)(=O)CCOP(=O)(N(CCCl)CCCl)N(CCCl)CCCl)cc1)N1CCCCC1 [Compound 159A]	24.4	–	–	5.3	3.5	–	–	–
